# Experimental data published in patent publication US11434227B2, “Broad spectrum antibacterial activity of novel bisbenzimidazoles targeting topoisomerase IA and the synergistic composition of bisbenzimidazole with efflux pump inhibitors against pathogenic bacteria” (Jawaharlal Nehru University (JNU), priority 2016, dated 2022).
# Key:
# [1] = system: efflux and porin genes (acrAB-tolC, emrAB-tolC, ompC, ompF) in E. coli K12 cells; assay: Gene expression analysis by real-time qPCR; assay type: cell-based, Escherichia coli; settings: E. coli K12 cells treated with ¼ MIC
# [2] = system: Enterococcus sp. (1121); assay: Susceptibility (MIC50/MIC90), broth microdilution
# Protocol: (§1) MICs were determined by the broth microdilution method according to CLSI methods (Clinical and Laboratory Standards Institute, 2005). Inoculants were incubated at 37° C. on cation adjusted Mueller Hinton (MH) Broth for 18 to 24 h. Compound were dissolved in media to 10 doubling dilutions from 128 to 0.125 μg/mL. All the bacterial strains were grown in 96 well plate with low evaporation lid (Falcon, Becton Dickinson) in presence of derivatives of benzimidazoles at 0.125, 0.25, 0.5, 1, 2, 4, 8, 16, 32, 64, 128, 256 μg/mL concentrations. […] Plates were read by Tecan Micro-plate Reader at 600 nm.
# [3] = system: Enterococcus sp. (1365); assay: Susceptibility (MIC50/MIC90), broth microdilution
# Protocol: as §1
# [4] = system: Enterococcus sp. (432); assay: Susceptibility (MIC50/MIC90), broth microdilution
# Protocol: as §1
# [5] = system: Escherichia coli 385; assay: Susceptibility (MIC50/MIC90), broth microdilution
# Protocol: as §1
# [6] = system: Escherichia coli 392; assay: Susceptibility (MIC50/MIC90), broth microdilution
# Protocol: as §1
# [7] = system: Klebsiella planticola (MTCC 2272); assay: Susceptibility (MIC50/MIC90), broth microdilution; settings: MTCC2272
# Protocol: as §1
# [8] = system: Klebsiella planticola (K235); assay: Susceptibility (MIC50/MIC90), broth microdilution
# Protocol: as §1
# [9] = system: Klebsiella planticola (K589); assay: Susceptibility (MIC50/MIC90), broth microdilution
# Protocol: as §1
# [10] = system: Salmonella typhimurium (St412); assay: Susceptibility (MIC50/MIC90), broth microdilution; settings: Salmonella enterica
# Protocol: as §1
# [11] = system: E. coli K12; assay: Susceptibility of E. coli K12 and mutants (MIC90); settings: Escherichia coli
# Protocol: as §1
# [12] = system: E. coli K12 mutant ΔompF; assay: Susceptibility of E. coli K12 and mutants (MIC90); settings: Escherichia coli
# Protocol: as §1
# [13] = system: E. coli K12 mutant ΔTopIB; assay: Susceptibility of E. coli K12 and mutants (MIC90); settings: Escherichia coli
# Protocol: as §1
# [14] = system: E. coli DH5α; assay: Susceptibility (MIC, PAE, MBC), broth microdilution; settings: Escherichia coli
# Protocol: as §1
# [15] = system: E. coli 72^R; assay: as above; settings: Escherichia coli
# Protocol: as §1
# [16] = system: E. coli 85^R; assay: as above; settings: Escherichia coli
# Protocol: as §1
# [17] = system: E. coli 451^R; assay: as above; settings: Escherichia coli
# Protocol: as §1
# [18] = system: E. coli 81^R; assay: as above; settings: Escherichia coli
# Protocol: as §1
# [19] = system: E. coli 151^R; assay: as above; settings: Escherichia coli
# Protocol: as §1
# [20] = system: E. coli 401^R; assay: as above; settings: Escherichia coli
# Protocol: as §1
# [21] = system: E. coli 555^R; assay: as above; settings: Escherichia coli
# Protocol: as §1
# [22] = system: E. coli ATCC25922; assay: HN12b in combination with efflux pump inhibitors (CB method, FICI); settings: for FICI / Interpretation: E. coli ATCC25922
# Protocol: (§2) 96-well microtiter plates containing MIC25 concentrations of the Efflux pump inhibitor (CCCP, PAβN) and HN12b antimicrobial drugs alone and in CB combination were used. The MICs of the individual drugs HN12b, PAβN and CCCP (0.25 to 128 μg/ml) and of the combinations were determined using the broth microdilution technique as recommended by the CLSI. Briefly, the broth microdilution plates were inoculated with each test organism to yield the appropriate density (10^5 CFU/ml) in 100 μl Mueller-Hinton broth (MHB) and incubated for 24 h at 37° C. in ambient air. One well with no antibiotic was used as a positive growth control on each plate. Plates were read for visual turbidity, and results were recorded after 24 h of incubation at 37° C. in ambient air by using a magnifying mirror reader, as turbidity in wells indicated growth of the microorganism. The MIC was determined as the well in the microtiter plate with the lowest drug concentration at which there was no visible growth. […] MICAB was defined as the MIC of drug A in the presence of drug B; MICBA was defined as the MIC of drug B in the presence of drug A.
# (§3) The fractional inhibitory concentration index (FICI) was calculated for each antibiotic in each combination by using the following formula: FICA+FICB=FICI, where FICA equals the MIC of drug A in combination divided by the MIC of drug A alone and FICB equals the MIC of drug B in combination divided by the MIC of drug B alone. The FICIs were interpreted as follows: FICI of ≤0.5 will correspond to synergy; FICI of >0.5 to ≤1 will correspond to additivity; FICI of >1 to ≤4 will correspond to no interaction (indifference), and FICI of >4 will correspond antagonism.
# [23] = system: A. baumannii (MTCC1920); assay: as above
# Protocol: as §2, §3
# [24] = system: A. baumannii (AB387); assay: as above; settings: for FICI / Interpretation: A. baumannii (AB387)
# Protocol: as §2, §3
# [25] = system: P. aeruginosa (MTCC1688); assay: as above
# Protocol: as §2, §3
# [26] = system: Enterococcus sp. (1121); assay: as above
# Protocol: as §2, §3
# [27] = system: Providencia sp. (MTCC 2102); assay: as above; settings: for FICI: Providencia sp. (MTCC 2102)
# Protocol: as §2, §3
# [28] = A. baumannii (MTCC1920), HN12b + CCCP
# [29] = P. aeruginosa (MTCC1688), HN12b + CCCP
# [30] = Enterococcus sp. (1121), HN12b + CCCP
smiles,measurement,setting,value
"CCCN1CCN(c2nc3ccc(-c4nc5ccccc5[nH]4)cc3[nH]2)CC1 [HN12b, 2′-(4-propylpiperazine-1-yl)-1H, 3′H-2,5′-bibenzimidazole]",gene expression of efflux pumps and porins,[1],acrAB-tolC and emr AB-tolC activation and ompC and ompF down-regulation
same,MIC50,[2],< 0.25 mg/L
same,MIC90,[2],8 mg/L
same,MIC50,[3],0.25 mg/L
same,MIC90,[3],11.2 mg/L
same,MIC50,[4],< 0.25 mg/L
same,MIC90,[4],8.25 mg/L
same,MIC50,[5],1.5 mg/L
same,MIC90,[5],3.3 mg/L
same,MIC50,[6],17.9 mg/L
same,MIC90,[6],64.5 mg/L
same,MIC50,[7],30 mg/L
same,MIC90,[7],128 mg/L
same,MIC50,[8],4.52 mg/L
same,MIC90,[8],84.5 mg/L
same,MIC50,[9],7.4 mg/L
same,MIC90,[9],97.4 mg/L
same,MIC50,[10],< 0.25 mg/L
same,MIC90,[10],< 0.25 mg/L
same,MIC90,[11],8 mg/L
same,MIC90,[12],5.4 mg/L
same,MIC90,[13],3.8 mg/L
same,MBC,[14],0.8 mg/L
same,MIC50,[14],0.2 mg/L
same,MIC90,[14],0.2 mg/L
same,MIC90,[15],3.1 mg/L
same,MBC,[16],2 mg/L
same,MIC50,[16],1 mg/L
same,MIC90,[16],1.7 mg/L
same,MBC,[17],2 mg/L
same,MIC50,[17],1 mg/L
same,MIC90,[17],1.7 mg/L
same,MBC,[18],2 mg/L
same,MIC50,[18],1 mg/L
same,MIC90,[18],1.6 mg/L
same,MBC,[19],2 mg/L
same,MIC50,[19],1 mg/L
same,MIC90,[19],1.7 mg/L
same,MBC,[20],2 mg/L
same,MIC50,[20],1 mg/L
same,MIC90,[20],1.7 mg/L
same,MBC,[21],8 mg/L
same,MIC50,[21],4 mg/L
same,MIC90,[21],6.8 mg/L
same,FICI,[22]; HN12b + CCCP,0.3
same,Interpretation,[22]; HN12b + CCCP,Synergy (FICI of ≤0.5 will correspond to synergy)
same,FICI,[22]; HN12b + PAβN,0.1
same,Interpretation,[22]; HN12b + PAβN,Synergy (FICI of ≤0.5 will correspond to synergy)
same,MIC90,"[22]; Escherichia coli, ATCC25922",14 mg/L
same,FICI,[23]; [28],0.5
same,Interpretation,[23]; [28],Synergy (FICI of ≤0.5 will correspond to synergy)
same,FICI,"[23]; A. baumannii (MTCC1920), HN12b + PAβN",0.9
same,MIC90,"[23]; Acinetobacter baumannii, MTCC1920",> 128 mg/L
same,FICI,[24]; HN12b + CCCP,0.2
same,Interpretation,[24]; HN12b + CCCP,Synergy (FICI of ≤0.5 will correspond to synergy)
same,FICI,[24]; HN12b + PAβN,0.2
same,Interpretation,[24]; HN12b + PAβN,Synergy (FICI of ≤0.5 will correspond to synergy)
same,MIC90,[24]; Acinetobacter baumannii,8 mg/L
same,FICI,[25]; [29],0.6
same,Interpretation,[25]; [29],Synergy (FICI of ≤0.5 will correspond to synergy)
same,FICI,"[25]; P. aeruginosa (MTCC1688), HN12b + PAβN",1
same,MIC90,"[25]; Pseudomonas aeruginosa, MTCC1688",> 128 mg/L
same,MIC90,[26]; Enterococcus,8 mg/L
same,FICI,[26]; [30],0.5
same,Interpretation,[26]; [30],Synergy (FICI of ≤0.5 will correspond to synergy)
same,FICI,"[26]; Enterococcus sp. (1121), HN12b + PAβN",1
same,FICI,[27]; HN12b + CCCP,0.6
same,FICI,[27]; HN12b + PAβN,1
same,MIC90,"[27]; Providencia, MTCC2102",> 128 mg/L
